Patent US20250368687A1, “SHORT SYNTHETIC PEPTIDES AND USES THEREOF IN THE TREATMENT OF ENTEROVIRUS INFECTION” (CITY UNIVERSITY OF HONG KONG, priority 2024, published 2025)

Columns and labels:
[1] = test system: EV-A71; assay: EV-A71-induced cytopathic effect (CPE) on RD cells; assay type: cell-based; conditions: EV-A71 MOI 1 for 12 hours
Procedure: FIGS. 10A-10K. Peptide S78 inhibited EV-A71 replication and propagation. (FIG. 10A) RD cells were pre-treated with peptides S78 or for 2 hours and infected with EV-A71 at the MOI of 10 for 6 hours. Cell lysates were collected for western blot assay. Hsp27 phosphorylation on Ser 15, 78, 82 were detected by specific antibodies. β-Actin were detected as internal control. (FIG. 10B) Densitometric analysis of FIG. 9A. (FIG. 10C) HEK 293T cells were pre-treated with peptides S78 or S78A at the concentration of 25 μM for 2 hours and then co-transfected with Hsp27-WT plasmid (800 ng), pIRES reporter plasmid (200 ng) and 2A^pro-expressing plasmid or 2AC110A-expressing plasmid (200 ng) for 24 h, then the luciferase activity was measured. (FIG. 10D-10E) RD cells were treated with peptides S78 or S78A and then infected with EV-A71. EV-A71 VP1 were detected. (FIG. 10F) RD cells were treated with peptides and then infected with EV-A71 at the MOI of 1 for 12 hours. The EV-A71-induced CPE was captured. (FIG. 10G-10H) Intracellular viral RNA was extracted and quantified by qPCR. (FIG. 10I) Densitometric analysis FIG. 9D-E. (FIG. 10J) RD cells were treated with peptides S78 or and then infected with EV-A71 at the MOI of 1 for 12 hours. Extracellular viral RNA was extracted and quantified by qPCR. (FIG. 10K) Viral titration was calculated by TCID50. […] Data are expressed as mean ±SD. […]

[2] = test system: RD cells; assay: CCK-8 assay; assay type: cell-based; conditions: data not shown
Procedure: RD cells were seeded in 96-well cell plates (1×10^4/well) and placed in the 5% CO2 incubator for 1 day. Then the cells were treated with peptides for 2 days. 90 μl medium and 10 μl of CCK-8 (BioSharp, BS350B) was added to each well of the 96-well plate, which were incubated at 37° C. for 1 h. A microplate reader (BioTek, Synergy H1) was used to measure the OD value of each well at 450 nm.

[3] = test system: p38 MAPK; conditions: background statement; cited from earlier work
[4] = test system: EV-A71 IRES activity; assay: Dual-luciferase IRES reporter assay in RD cells; assay type: cell-based; conditions: 2 μM for 2 h, RD cells co-transfected with 2Apro and pIRES reporter plasmids 24 h
Procedure: FIGS. 6A-6C Ser78 phosphorylation-deficient Hsp27 suppresses the viral IRES activity. (FIG. 6A) RD cells were pretreated with 2 μM SB203580 for 2 h, then co-transfected with a 2A^pro-expressing plasmid (200 ng) and pIRES reporter plasmid (200 ng) for 24 h, then the luciferase activity was measured. (FIG. 6B) HEK 293T cells were co-transfected with Hsp27 (WT, 3A, S15A, S78A, and S82A) plasmid (800 ng), pIRES reporter plasmid (200 ng) and 2A^pro-expressing plasmid (200 ng) for 24 h, then the luciferase activity was measured. (FIG. 6C) HEK 293T cells were co-transfected with Hsp27 (WT, 3A, S15A, S78A, 3D S15D, and S78D) plasmid (800 ng), pIRES reporter plasmid (200 ng) and 2A^C110A-expressing plasmid (200 ng) for 24 h, then the luciferase activity was measured. Statistical analyses were carried out using Student's t-test. *: p<0.05, **: p<0.01, ***: p<0.001. Data are expressed as mean ±SD.
HEK 293T cells were seeded in 24-wells, and then co-transfected with plasmids to simultaneously express 2A^pro (200 ng), pIRES reporter (200 ng), and the wild-type Hsp27 or its mutants (800 ng). […] The Renilla luciferase (RLuc) and Firefly luciferase (FLuc) activity were determined by using a dual-luciferase reporter assay (Promega) according to the manufacturer's instructions in a Lumat LB9507 bioluminometer. […]

## Ac-RKKRRQRRRAYSRALSRQLSS-NH2 [S78]
[1]
  protection from EV-A71-induced CPE: dramatically protected

## Ac-RKKRRQRRRYSREANQPKPSPKRESGEE-NH2 [NC, reference compound]
[2]
  CC50 (in words): high

## C[S+]([O-])c1ccc(-c2nc(-c3ccncc3)c(-c3ccc(F)cc3)[nH]2)cc1 (stereo not drawn) [SB203580, reference compound]
[3]
  secretion of inflammatory factors (such as IL-6, IL-10, and TNF-α): inhibited
  viral replication: reduced
[4]
  reduction of IRES activity: 32%

## Ac-RKKRRQRRRAYSRALARQLSS-NH2 [S78A]
[1]
  protection from EV-A71-induced CPE: mild protection
